Test: Time-course of drug levels in adult and embryonic mouse plasma, brain and liver after a single subcutaneous injection (LC-MS/MS)
Details: mouse, 10 mg/kg
[1] = female, brain (adult), subcutaneous
[2] = female, liver (adult), subcutaneous

`O=C1CC[C@@]2(O)[C@H]3Cc4ccc(O)c5c4[C@@]2(CCN3CC2CC2)[C@H]1O5` [Naltrexone, naltrexone, reference compound] showed a concentration at 20 min [1] of 3230 ng/g, a concentration at 45 min [1] of 1470 ng/g and a concentration at 2 h [1] of 250 ng/g. It also gave a concentration at 4 h [1] of 18 ng/g, a concentration at 20 min (female, in vivo) of 1880 ng/g and a concentration at 45 min (female, in vivo) of 620 ng/g. The concentration at 2 h (female, in vivo) was 130 ng/g, the concentration at 4 h (female, in vivo) was 4 ng/g and the concentration at 20 min [2] was 2100 ng/g. It also gave a concentration at 45 min [2] of 1390 ng/g, a concentration at 2 h [2] of 360 ng/g and a concentration at 4 h [2] of 32 ng/g. It also gave a concentration at 45 min (embryo brain, subcutaneous) of 2610 ng/g, a concentration at 2 h (embryo brain, subcutaneous) of 500 ng/g and a concentration at 45 min (embryo liver, subcutaneous) of 3190 ng/g. It also gave a concentration at 2 h (embryo liver, subcutaneous) of 620 ng/g.

Source: US12161641B2, “Treatments and prevention of opioid neonatal abstinence syndrome” (Ohio State Innovation Foundation, priority 2016, dated 2024)
